The values that follow come from patent EP0562479A1, “1-Phenyl-5-heterocyclic-1H-1, 2,4-triazole-3-carboxamide derivates, process for preparation of the same, and fungicidal composition comprising the same” (KUREHA CHEMICAL INDUSTRY CO., LTD., priority 1992, dated 1993).

For this assay, the system named is Botrytis cinerea. Nature of the assay: Test for controlling effect against cucumber gray mold. In kind it is in vivo, Botrytis cinerea on cucumber. The note with it: wettable powder sprayed 5 ml per pot, lesion areas three days after inoculation. The procedure:
Test Example 1 〈Test for controlling effect against cucumber gray mold (Botrytis cinerea on cucumber)〉 A wettable powder similar to that prepared in Formulation Example 2, diluted with water to a prescribed concentration, was sprayed onto the cucumber plants of the first leaf stage (variety: […], one plant per pot) growing in an unglazed pot (diameter: 10 cm), in an amount of 5 ml per pot. After drying the sprayed leaves in the air, a circular cutting (diameter: 4 mm) of agar containing Botrytis cinerea, which had been cultured in advance in a potato-sucrose agar medium at 20°C for 3 days, was attached directly to the center part of the leaves, and the pots maintained at 20-22°C under high humidity conditions. Three days after the inoculation, lesion areas of the disease were examined to calculate the inhibition rate according to the following equation. [formula]

Regarding `CCCCOC(c1cccc(-n2nc(C(N)=O)nc2-c2sccc2C)c1)C(C)C` (centres unmarked) [Compound 16, 1-[3-[(1-butoxy-2-methyl)propyl]phenyl]-5-(3-methylthiophen-2-yl)-1H-1,2,4-triazole-3-carboxamide], the “Inhibition rate (%) at concentration of 500 ppm Cucumber gray mold” value turned out to be 94%.
Next, `CCCCOC(c1cccc(-n2nc(C(N)=O)nc2-c2cccc(C)n2)c1)C(C)C` (centres unmarked) [Compound 7, 1-[3-[(1-butoxy-2-methyl)propyl]phenyl]-5-(6-methylpyridin-2-yl)-1H-1,2,4-triazole-3-carboxamide]: 95%.
